Data published in US9526248B2 (Rohm and Haas Company, priority 2012, dated 2016).
Where two headings read alike, the source gives them in different places.

Key:
[1] = system: Stichococcus bacillaris SAG 379-1a / CCAP 379/1a; experiment: Algal efficacy test of dry paint films (modified ASTM 5589, 6-well plates); format: cell-based; conditions: for inhibition at 5000 ppm: Stichococcus bacillaris, 504 h; for Total conc: total biocide concentration in paint at which the % inhibition is reported, pass level ≥75% inhibition, single actives: maximum concentration tested, no pass
Procedure: (§1) These paints were then diluted with an antimicrobial free acrylic/silicone based paint and mixed to prepare targeted concentrations of antimicrobial compounds for the testing. The total biocides concentrations tested were 125, 250, 500, 1000, 2000 and 5000 ppm. After biocides addition or dilution, the paints were mixed 90 seconds with the horse power shaker (AXEL 75M3372/Agitateur 50-10MI) until uniformity was achieved. Paints containing different antimicrobial compounds at the same levels were mixed together in order to obtain the desired ratio of antimicrobial compounds. After one day, the paints were applied to Schleicher & Schuell filter paper at 280 μm wet film thickness and dried for 3 days at room temperature avoiding direct exposure to sunlight. Square discs (1.6 cm×1.6 cm) were cut out from each panel and were used as the substrate for algal efficacy tests. This sample size allowed for an agar border when the sample disc was placed into the well of the test plate.
(§2) Algal efficacy was tested according to modified ASTM 5589 which is a standard accelerated test method for determining resistance of various coatings (including paints) to algal defacement. To accommodate for high-throughput screening, this method was scaled down from petri dishes to 6-well plates. Bold Modified Basal Freshwater Nutrient Solution was used as growth medium. A single coated filter paper coupon was placed with a pair of sterile forceps at the center of the agar plug (on top) with the painted surface facing upwards. Algal inoculums were prepared by mixing equal concentrations (1×10^6 cfu/ml) and equal volumes of exponentially growing algae cultures.
(§3) Each well that contains a tested coupon was inoculated with 1750 μl of algal suspensions (1×10^6 cfu/ml) making sure that the whole surface (paint film as well as the agar surrounding it) was evenly covered. The plates were incubated at room temp (21° C.-25° C.) with cyclic exposure to light and dark phases, for a period of three weeks.
(§4) At the end of the three week incubation period, the samples were scored for percent inhibition regarding visible algal growth compared to the blank sample (0% inhibition).
(§5) The SI is calculated based on F. C. Kull et.
(§6) SI value of <1 in the formula indicates a synergism of the blended biocides exists.
(§7) The minimal targeted inhibition was set at 75%, meaning a coupon with at least 75% algal growth inhibition was considered as a pass.

[2] = system: Chlorella sp. ATCC 7516; experiment: as above; format: cell-based; conditions: for inhibition at 5000 ppm: 504 h; for Total conc: total biocide concentration in paint at which the % inhibition is reported, pass level ≥75% inhibition, single actives: maximum concentration tested, no pass
Procedure: as §1, §2, §3, §4, §5, §6, §7

| Compound | inhibition at 5000 ppm [1] | Total conc ([1]; Stichococcus, 3 weeks) | inhibition at 5000 ppm [2] | Total conc ([2]; 3 weeks) | inhibition at 5000 ppm ([1]; Stichococcus, total conc 5000 ppm in paint, visible algal growth vs blank, 3 weeks, read-out: % inhibition) | inhibition at 5000 ppm ([2]; total conc 5000 ppm in paint, visible algal growth vs blank, 3 weeks, read-out: % inhibition) |
| --- | --- | --- | --- | --- | --- | --- |
| O=c1[nH]c2c(c(=O)n1C1CCCCC1)CCC2 [Lenacil, 3-cyclohexyl-1,5,6,7-tetrahydrocyclopentapyrimidine-2,4(3H)-dione] | 70% | 5000 ppm | 30% | 5000 ppm |  |  |
| CCNc1nc(NC(C)(C)C)nc(SC)n1 [Terbutryn, N^2-tert-butyl-N^4-ethyl-6-methylthio-1,3,5-triazine-2,4-diamine] |  | 5000 ppm |  | 5000 ppm | 35% | 65% |
